According to patent publication US20210017607A1, “Methods of Predicting Responsiveness to Cancer Therapies” (The University of Chicago, priority 2019, published 2021):

Key:
Pi3K enzymatic activity = experiment: Intratumoral target inhibition by western blotting; type: in vivo, mouse; details: B6-Myc and Myc-CAP tumors; 30 mg/kg oral gavage daily 7 days
Method: (§1) FIGS. 18A and 18B. Buparlisib and Rucaparib inhibit intratumoral Pi3K and PARP enzymatic activity, respectively, within B6-Myc (STING^hi) and Myc-CAP (STING^lo) tumors. Subcutaneous Myc-CAP (STING^lo) and B6-Myc (STING^hi) tumors at 400-500 mm^3 volumes were treated with either buparlisib (pan-PI3K inhibitor, 30 mg/kg) or rucaparib (PARP inhibitor, 150 mg/kg) by oral gavage daily for 7 days. At end of treatment, both (18A) B6-Myc (STING^hi) and (18B) Myc-CAP (STING^lo) tumors were harvested and protein extracts utilized for assessment of target inhibition with the indicated antibodies by western blotting. n=2 mice per treatment group.
(§2) Western Blot Analysis. RIPA and T-PER buffer (Thero Scientific®), supplemented with protease (Roche®) and HALT phosphatase inhibitor cocktail (Roche®), were used for preparation of lysates from in vitro cell lines and whole tumor chunks, respectively. For western blotting, the following antibodies were used from Cell Signaling Technology®: Polyclonal rabbit anti-mouse-phospho-γH2AX, phospho-AKT, total AKT, cGAS, STING, phospho-IRF3, total IRF3, phospho-TBK1, total TBK1, PTEN, β-actin and GAPDH. Monoclonal anti-mouse PAR antibody was obtained from Trevigen®. Images of scanned blots were processed using ADOBE Photoshop®.

PARP = experiment: In vitro target inhibition by western blotting (PARylation); type: cell-based, mouse
PARP enzymatic activity = experiment: Intratumoral target inhibition by western blotting; type: in vivo, mouse; details: B6-Myc and Myc-CAP tumors; 150 mg/kg oral gavage daily 7 days
Method: as §1, §2

[1] = test system: B6-Myc (STING^hi) cancer cells; experiment: IFNβ1 ELISA of supernatants after DMXAA treatment; type: cell-based, mouse; details: 36 hours
Method: (§3) FIGS. 15A-15E. Differential STING pathway activation within B6-Myc (STING^hi) cell lines and BMDMs relative to Myc-CAP (STING^lo) cells. (15A, 15B) The indicated cancer cell lines and BMDMs were treated with DMXAA (mouse STING agonist) for 1 and 24 hours, respectively, and protein extracts were interrogated for cGAS/STING pathway activation with the indicated antibodies by Western blotting. Supernatants were collected from for IFNβ1 ELISA following 36 hours of treatment with DMXAA (15C, 15D). (15E) Syngeneic Myc-CAP (STING^lo) tumors were processed into single cell suspensions and used for phycoerythrin-based sorting of CD45+ cellular fractions. Equal numbers of cells from these fractions were stimulated with DMXAA. Supernatants were collected at 36 hrs for detection of IFNB1 by ELISA; n=3 independent experiments; Significance/p-values were calculated by one-way Anova (for 15C & 15E) or paired t-test (for 15D); TAM=tumor associated macrophage; s.e.=short exposure; l.e.=long exposure.
(§4) Cancer Cell Lines. Transgenic c-myc” prostate tumor derived cell line, Myc-CAP) (STING^lo) was obtained from ATCC and passaged in 1× DMEM (without phenol red) containing 10% fetal bovine serum, 1% penicillin-streptomycin and 2% L-glutamine. The corresponding c-myc^hi line derived from a C57BL6 generated background were grown for in vitro studies, using same culture conditions as for Myc-CAP. […]

[2] = test system: bone marrow derived macrophages (BMDMs); experiment: IFNβ1 ELISA of supernatants after DMXAA treatment; type: cell-based, mouse; details: 36 hours
Method: as §3
Generation of BMDMs. Bone marrow derived macrophages were differentiated as previously described. […]

[3] = test system: Myc-CAP (STING^lo) cancer cells; experiment: IFNβ1 ELISA of supernatants after DMXAA treatment; type: cell-based, mouse; details: 36 hours
Method: as §3, §4

[4] = test system: prostate-specific PTEN^−/−p53^−/− GEMM tumors; experiment: Ex vivo GEMM tumor suspensions, IFNβ1 ELISA; type: cell-based, mouse; details: DMXAA 50 μg/mL, 36 hours
Method: FIG. 39. […] Tumors from prostate-specific PTEN^−/−p53^−/− GEMM tumors were processed into single cell suspensions and treated with indicated drugs (DMXAA at 50 μg/mL, Buparlisib at 1000 nM, Rucaparib at 500 nM). At 36 hours supernatants were collected for ELISA based detection of IFNβ1; n=1 independent experiment.
Ex vivo Assays. Subcutaneous tumors were isolated by gentle mechanical dissociation in the presence of 1×RPMI (supplemented with 10% fetal bovine serum, 1% penicillin-streptomycin and 2% L-glutamine). 1×ACK was used for RBC lysis. Single cell suspensions were washed twice with media, by centrifuging at 500×g for 5 min at 4° C. and quantified using 0.1% […] solution. Cells were seeded at a concentration 0.2-0.5 million cells/mL and treated with indicated drugs singly or in combination for 36 hours. DMXAA (positive control) was used at indicated concentration. Supernatants from treated BMDMs were collected at the end of 36 hours and processed as per ELISA protocol for detection of cytokines/chemokines.

[5] = test system: Myc-CAP tumors with Intermediate tumor cell intrinsic levels of STING; experiment: Survival of mice bearing STING-overexpressing Myc-CAP tumors; type: in vivo, mouse; details: DMXAA single intra-tumoral dose
Method: FIG. 52. STING agonist treatment is protective to mice bearing Myc-CAP tumors with Intermediate (not high) tumor cell intrinsic levels of STING. Syngeneic mice bearing Myc-CAP wild-type (WT) and STING overexpressed (STING OE; clone 34) or STING intermediate (STING OE; clone 35) tumors (200 mm^3) were treated with DMXAA ([…] intra-tumoral dose). Tumors were monitored until cut-off tumor volume of 2500 mm^3, and Kaplan Meier curves were plotted. n=3 mice per cohort.

Structure (SMILES): Nc1cc(C(F)(F)F)c(-c2cc(N3CCOCC3)nc(N3CCOCC3)n2)cn1 [buparlisib]
- intratumoral Pi3K enzymatic activity (Pi3K enzymatic activity): inhibit

Structure (SMILES): CNCc1ccc(-c2[nH]c3cc(F)cc4c3c2CCNC4=O)cc1 [rucaparib]
- concentration that achieved complete target inhibition in vitro (PARP; B6-Myc cells (FIG. 17B)): 500 nM
- concentration that completely inhibits PARylation (PARP; B6-Myc in vitro): 500 nm
- complete target inhibition concentration (PARP; Myc-CAP cells (FIG. 29B)): 500 nM
- intratumoral PARP enzymatic activity (PARP enzymatic activity): inhibit

Structure (SMILES): Cc1ccc2c(=O)c3cccc(CC(=O)O)c3oc2c1C [DMXAA, 5,6-Dimethylxanthenone-4-acetic Acid]
- fold induction in IFN-β levels [1]: 48.1 fold
- fold induction in IFN-β levels [2]: 46.4 fold
- induction in IFN-β levels [3]: not observed
- STING activation (IFNβ1 ELISA) [4]: induces STING activation
- survival (Kaplan Meier) [5]: protective
